± gives the expanded uncertainty stated by the source.
Assay: xn = mol fraction of the nth substance listed
Settings: Liquid, Vibrating tube method

COC(=O)OC [dimethyl carbonate] + CO
mass density [kg/m3]
Settings | 100 kPa | 5000 kPa | 10000 kPa | 15000 kPa | 20000 kPa | 25000 kPa | 30000 kPa | 35000 kPa | 40000 kPa
288.15 K, x1 = 0.0253 | 810.84 ± 1.4 | 815.18 ± 1.4 | 819.54 ± 1.4 | 823.48 ± 1.4 | 827.53 ± 1.4 | 831.19 ± 1.4 | 834.68 ± 1.4 | 838.22 ± 1.4 | 841.6 ± 1.4
288.15 K, x1 = 0.0503 | 824.62 ± 1.4 | 828.97 ± 1.4 | 833.29 ± 1.4 | 837.23 ± 1.4 | 841.29 ± 1.4 | 844.9 ± 1.4 | 848.4 ± 1.4 | 851.95 ± 1.4 | 855.33 ± 1.4
288.15 K, x1 = 0.0745 | 837.24 ± 1.4 | 841.59 ± 1.4 | 845.92 ± 1.4 | 849.88 ± 1.4 | 853.93 ± 1.4 | 857.55 ± 1.4 | 861.06 ± 1.4 | 864.56 ± 1.4 | 867.95 ± 1.4
288.15 K, x1 = 0.101 | 850.42 ± 1.4 | 854.82 ± 1.4 | 859.16 ± 1.4 | 863.12 ± 1.4 | 867.17 ± 1.4 | 870.8 ± 1.4 | 874.32 ± 1.4 | 877.83 ± 1.4 | 881.23 ± 1.4
288.15 K, x1 = 0.1502 | 872.98 ± 1.4 | 877.39 ± 1.4 | 881.74 ± 1.4 | 885.77 ± 1.4 | 889.81 ± 1.4 | 893.46 ± 1.4 | 897.03 ± 1.4 | 900.56 ± 1.4 | 903.97 ± 1.4
288.15 K, x1 = 0.2059 | 896.31 ± 1.4 | 900.74 ± 1.4 | 905.09 ± 1.4 | 909.15 ± 1.4 | 913.18 ± 1.4 | 916.85 ± 1.4 | 920.43 ± 1.4 | 923.97 ± 1.4 | 927.4 ± 1.4
288.15 K, x1 = 0.25 | 913.24 ± 1.4 | 917.63 ± 1.4 | 921.99 ± 1.4 | 926.05 ± 1.4 | 930.08 ± 1.4 | 933.76 ± 1.4 | 937.36 ± 1.4 | 940.91 ± 1.4 | 944.34 ± 1.5
288.15 K, x1 = 0.3004 | 930.93 ± 1.4 | 935.33 ± 1.4 | 939.69 ± 1.4 | 943.77 ± 1.4 | 947.8 ± 1.5 | 951.49 ± 1.5 | 955.1 ± 1.5 | 958.61 ± 1.5 | 962.05 ± 1.5
288.15 K, x1 = 0.3426 | 944.7 ± 1.4 | 949.1 ± 1.5 | 953.42 ± 1.5 | 957.51 ± 1.5 | 961.53 ± 1.5 | 965.18 ± 1.5 | 968.8 ± 1.5 | 972.32 ± 1.5 | 975.72 ± 1.5
288.15 K, x1 = 0.3984 | 961.49 ± 1.5 | 965.91 ± 1.5 | 970.23 ± 1.5 | 974.34 ± 1.5 | 978.3 ± 1.5 | 981.96 ± 1.5 | 985.59 ± 1.5 | 989.12 ± 1.5 | 992.53 ± 1.5
288.15 K, x1 = 0.4514 | 976.13 ± 1.5 | 980.55 ± 1.5 | 984.83 ± 1.5 | 988.95 ± 1.5 | 992.91 ± 1.5 | 996.58 ± 1.5 | 1000.22 ± 1.5 | 1003.71 ± 1.5 | 1007.07 ± 1.5
288.15 K, x1 = 0.5054 | 989.85 ± 1.5 | 994.22 ± 1.5 | 998.51 ± 1.5 | 1002.64 ± 1.5 | 1006.6 ± 1.5 | 1010.28 ± 1.5 | 1013.92 ± 1.5 | 1017.42 ± 1.5 | 1020.79 ± 1.5
288.15 K, x1 = 0.5509 | 1000.55 ± 1.5 | 1004.93 ± 1.5 | 1009.17 ± 1.5 | 1013.31 ± 1.5 | 1017.27 ± 1.5 | 1020.95 ± 1.5 | 1024.6 ± 1.5 | 1028.11 ± 1.5 | 1031.49 ± 1.5
288.15 K, x1 = 0.6002 | 1011.31 ± 1.5 | 1015.7 ± 1.5 | 1019.95 ± 1.5 | 1024.09 ± 1.5 | 1028.04 ± 1.5 | 1031.69 ± 1.5 | 1035.34 ± 1.5 | 1038.85 ± 1.5 | 1042.19 ± 1.5
288.15 K, x1 = 0.6469 | 1020.74 ± 1.5 | 1025.14 ± 1.5 | 1029.39 ± 1.5 | 1033.54 ± 1.5 | 1037.49 ± 1.5 | 1041.14 ± 1.5 | 1044.75 ± 1.5 | 1048.27 ± 1.5 | 1051.61 ± 1.5
288.15 K, x1 = 0.6993 | 1030.63 ± 1.5 | 1035.03 ± 1.5 | 1039.28 ± 1.5 | 1043.44 ± 1.5 | 1047.34 ± 1.5 | 1051 ± 1.5 | 1054.61 ± 1.5 | 1058.08 ± 1.5 | 1061.43 ± 1.6
288.15 K, x1 = 0.7496 | 1039.53 ± 1.5 | 1043.88 ± 1.5 | 1048.14 ± 1.5 | 1052.31 ± 1.5 | 1056.2 ± 1.5 | 1059.86 ± 1.5 | 1063.48 ± 1.6 | 1066.96 ± 1.6 | 1070.31 ± 1.6
288.15 K, x1 = 0.799 | 1047.69 ± 1.5 | 1052.04 ± 1.5 | 1056.25 ± 1.5 | 1060.43 ± 1.5 | 1064.32 ± 1.6 | 1067.94 ± 1.6 | 1071.56 ± 1.6 | 1075.04 ± 1.6 | 1078.4 ± 1.6
288.15 K, x1 = 0.837 | 1053.71 ± 1.5 | 1058.02 ± 1.5 | 1062.23 ± 1.6 | 1066.41 ± 1.6 | 1070.3 ± 1.6 | 1073.92 ± 1.6 | 1077.55 ± 1.6 | 1080.99 ± 1.6 | 1084.34 ± 1.6
288.15 K, x1 = 0.9093 | 1064.47 ± 1.6 | 1068.78 ± 1.6 | 1072.95 ± 1.6 | 1077.14 ± 1.6 | 1080.97 ± 1.6 | 1084.6 ± 1.6 | 1088.24 ± 1.6 | 1091.68 ± 1.6 | 1094.99 ± 1.6
288.15 K, x1 = 0.9239 | 1066.51 ± 1.6 | 1070.83 ± 1.6 | 1074.99 ± 1.6 | 1079.18 ± 1.6 | 1083.02 ± 1.6 | 1086.65 ± 1.6 | 1090.28 ± 1.6 | 1093.73 ± 1.6 | 1097.04 ± 1.6
288.15 K, x1 = 0.9575 | 1071.14 ± 1.6 | 1075.46 ± 1.6 | 1079.63 ± 1.6 | 1083.83 ± 1.6 | 1087.66 ± 1.6 | 1091.29 ± 1.6 | 1094.93 ± 1.6 | 1098.38 ± 1.6 | 1101.69 ± 1.6
288.15 K, x1 = 0.9861 | 1074.98 ± 1.6 | 1079.3 ± 1.6 | 1083.47 ± 1.6 | 1087.67 ± 1.6 | 1091.5 ± 1.6 | 1095.14 ± 1.6 | 1098.78 ± 1.6 | 1102.23 ± 1.6 | 1105.55 ± 1.6
288.15 K, x1 = 1 | 1076.83 ± 0.57 | 1081.15 ± 0.57 | 1085.32 ± 0.58 | 1089.52 ± 0.6 | 1093.35 ± 0.61 | 1096.99 ± 0.62 | 1100.63 ± 0.63 | 1104.08 ± 0.65 | 1107.4 ± 0.67
293.15 K, x1 = 0.0253 | 805.71 ± 1.4 | 810.46 ± 1.4 | 814.95 ± 1.4 | – | – | – | – | – | –
293.15 K, x1 = 0.0503 | 819.38 ± 1.4 | 824.13 ± 1.4 | 828.58 ± 1.4 | – | – | – | – | – | –
293.15 K, x1 = 0.0745 | 831.94 ± 1.4 | 836.69 ± 1.4 | 841.14 ± 1.4 | – | – | – | – | – | –
293.15 K, x1 = 0.101 | 844.99 ± 1.4 | 849.75 ± 1.4 | 854.2 ± 1.4 | – | – | – | – | – | –
293.15 K, x1 = 0.1502 | 867.43 ± 1.4 | 872.18 ± 1.4 | 876.65 ± 1.4 | – | – | – | – | – | –
293.15 K, x1 = 0.2059 | 890.58 ± 1.4 | 895.35 ± 1.4 | 899.82 ± 1.4 | – | – | – | – | – | –
293.15 K, x1 = 0.25 | 907.39 ± 1.4 | 912.16 ± 1.4 | – | – | – | – | – | – | –
293.15 K, x1 = 0.3004 | 925.01 ± 1.4 | 929.73 ± 1.4 | – | – | – | – | – | – | –
293.15 K, x1 = 0.3426 | 938.66 ± 1.4 | 943.38 ± 1.4 | – | – | – | – | – | – | –
293.15 K, x1 = 0.3984 | 955.38 ± 1.5 | 960.11 ± 1.5 | – | – | – | – | – | – | –
293.15 K, x1 = 0.4514 | 969.9 ± 1.5 | 974.63 ± 1.5 | – | – | – | – | – | – | –
293.15 K, x1 = 0.5054 | 983.54 ± 1.5 | 988.23 ± 1.5 | – | – | – | – | – | – | –
293.15 K, x1 = 0.5509 | 994.14 ± 1.5 | 998.83 ± 1.5 | – | – | – | – | – | – | –
293.15 K, x1 = 0.6002 | 1004.83 ± 1.5 | 1009.48 ± 1.5 | – | – | – | – | – | – | –
293.15 K, x1 = 0.6469 | 1014.25 ± 1.5 | 1018.9 ± 1.5 | – | – | – | – | – | – | –
293.15 K, x1 = 0.6993 | 1024.07 ± 1.5 | 1028.72 ± 1.5 | – | – | – | – | – | – | –
293.15 K, x1 = 0.7496 | 1032.91 ± 1.5 | 1037.51 ± 1.5 | – | – | – | – | – | – | –
293.15 K, x1 = 0.799 | 1041.06 ± 1.5 | 1045.66 ± 1.5 | – | – | – | – | – | – | –
293.15 K, x1 = 0.837 | 1047.02 ± 1.5 | 1051.63 ± 1.5 | – | – | – | – | – | – | –
293.15 K, x1 = 0.9093 | 1057.71 ± 1.5 | 1062.27 ± 1.6 | – | – | – | – | – | – | –
293.15 K, x1 = 0.9239 | 1059.75 ± 1.5 | 1064.31 ± 1.6 | – | – | – | – | – | – | –
293.15 K, x1 = 0.9575 | 1064.38 ± 1.6 | 1068.94 ± 1.6 | – | – | – | – | – | – | –
293.15 K, x1 = 0.9861 | 1068.22 ± 1.6 | 1072.78 ± 1.6 | – | – | – | – | – | – | –
293.15 K, x1 = 1 | 1070.06 ± 0.56 | 1074.62 ± 0.57 | – | – | – | – | – | – | –

Reference: the NIST ThermoML archive (doi:10.1016/j.jct.2019.02.011)
